The source of these data is PubChem BioAssay AID651761 (The Scripps Research Institute Molecular Screening Center, 2012).

For the assay, the target named is Perilipin-5 (Homo sapiens) + 1-acylglycerol-3-phosphate O-acyltransferase ABHD5 (Homo sapiens) (UniProt Q00G26+Q8WTS1). The experiment in a line: blockers of ABHD5 binding to perilipin-5 – biochemical, luminescence, late-stage follow-up (AID 651761). Conditions: biochemical ABHD5-PLIN5 interaction.

SMILES strings stand for the structures. Several values for one entry are separate records, joined by “and”; a condition that tells them apart may be missing. Equal values may be shown once. Activity calls are given as the source filed them. How the calls were made is not given here.

What is called IC50 is the point on the concentration scale where inhibition reaches its midpoint.

Sequence of Perilipin-5 (Homo sapiens) + 1-acylglycerol-3-phosphate O-acyltransferase ABHD5 (Homo sapiens) (Q00G26 whole entry, looked up): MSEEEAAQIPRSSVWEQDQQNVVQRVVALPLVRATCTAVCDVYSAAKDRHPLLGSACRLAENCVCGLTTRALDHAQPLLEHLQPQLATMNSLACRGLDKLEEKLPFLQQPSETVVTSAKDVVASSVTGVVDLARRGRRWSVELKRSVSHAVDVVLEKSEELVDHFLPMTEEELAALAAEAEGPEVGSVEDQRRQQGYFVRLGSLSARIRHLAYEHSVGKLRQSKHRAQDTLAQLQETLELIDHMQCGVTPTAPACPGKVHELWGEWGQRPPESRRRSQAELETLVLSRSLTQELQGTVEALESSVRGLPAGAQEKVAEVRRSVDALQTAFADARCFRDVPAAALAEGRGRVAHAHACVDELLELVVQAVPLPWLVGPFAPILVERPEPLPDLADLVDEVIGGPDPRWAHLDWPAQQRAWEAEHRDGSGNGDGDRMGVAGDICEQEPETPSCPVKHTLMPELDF
Sequence of Perilipin-5 (Homo sapiens) + 1-acylglycerol-3-phosphate O-acyltransferase ABHD5 (Homo sapiens) (Q8WTS1 whole entry, looked up): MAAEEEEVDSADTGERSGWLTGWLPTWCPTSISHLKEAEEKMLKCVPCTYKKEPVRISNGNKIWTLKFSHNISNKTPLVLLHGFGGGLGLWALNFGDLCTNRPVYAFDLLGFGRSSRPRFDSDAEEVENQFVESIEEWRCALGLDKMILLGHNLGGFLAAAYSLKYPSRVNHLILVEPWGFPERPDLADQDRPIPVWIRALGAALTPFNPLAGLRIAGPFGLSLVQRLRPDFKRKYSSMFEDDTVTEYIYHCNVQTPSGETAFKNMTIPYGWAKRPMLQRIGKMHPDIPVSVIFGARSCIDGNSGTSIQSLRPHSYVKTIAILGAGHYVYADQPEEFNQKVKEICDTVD

Consider `CCN(CC)CCNC(=O)c1ccc(NC(=O)c2cn(-c3ccccc3)nc2-c2cccs2)cc1`, for which the IC50 entry is “inactive”. Regarding `CN(C)CCN(Cc1ccco1)c1ccccn1`, the IC50 is > 39.8 µM (inactive). In the case of `CCCCOC(=O)Nc1cc(C(=O)OC)ccc1C(=O)OC` it was 5.26 µM. On to `CCCCNC(=O)Nc1ccc2c(c1)N(C)C(=O)c1ccccc1S2`, for which the IC50 was 3.02 µM. In the case of `Cc1cc(C)c(NC(=O)C[N+](C)(C)CC(O)COc2cccc3ccccc23)c(C)c1` (stereo unspecified) it was 4.32 µM; in that of `CN(C)CCCN(C(=O)CCc1ccccc1)c1nc2ccc(Br)cc2s1`, 8.16 µM; in that of `C=C[C@]1(C)C[C@@H](OC(=O)CSCCN(CC)CC)[C@]2(C)C(C)CC[C@]3(CCC(=O)[C@H]32)[C@@H](C)[C@@H]1O` (stereo partly specified), 8.02 µM. Consider `CC(CCc1ccco1)NC(=O)CCc1nnc2ccc(NCc3ccccc3Cl)nn12` (stereo unspecified), for which the IC50 was 1.01 µM.

With `CCOC(=O)c1c(NC(C)=O)sc2c1CCC(C=O)=C2Sc1ccccc1`, the IC50 was 1.79 µM. As to `CC1=CC(C)(C)Nc2ccc(OC(=O)C(C)N3C(=O)c4ccccc4C3=O)cc21` (stereo unspecified), the IC50 is 3.02 µM. For the molecule `CCN(CC)CCN(CC(=O)Nc1c(C)cc(C)cc1C)C(=O)c1ccccc1`, the IC50 is 5.67 µM. In the case of `CCN(CC)CCOCCOC(=O)C1(c2ccccc2)CCCC1` it was 0.985 µM; in that of `CN(C)CCOC1(Cc2ccc(F)cc2)CCC(C(C)(C)C)CC1` (stereo unspecified), > 39.8 µM (inactive); in that of `O=C(/C(=C/O)N=Nc1ccc(Cl)cc1)c1ccncc1`, 9.67 µM. In the case of `CCCNC(=O)Nc1ccc2c(c1)N(C)C(=O)c1ccccc1S2` it was 7.42 µM. On to `NC(=NCCCCCCN=C(N)/N=C(\N)Nc1ccc(Cl)cc1)/N=C(\N)Nc1ccc(Cl)cc1`, for which the IC50 was 2.64 µM. In the case of `CN(C)CCCN(C(=O)CCc1ccccc1)c1nc2ccc(Cl)cc2s1` it was 7.07 µM. To `COc1ccc(NC(=S)N(CCCN2CCCC2)Cc2cccn2Cc2ccc(Cl)cc2)cc1Cl` belongs “inactive”; to `CCOc1cc(N)c(Cl)cc1C(=O)NCC1CN(Cc2ccc(F)cc2)CCO1` (stereo unspecified), 1.34 µM.

For `COc1cc(OC)cc(C(=O)NC(=S)N(Cc2ccccc2)C(C)C)c1`, the IC50 is 1.44 µM. To `CC(=O)Cc1cc(O)c2ccccc2c1OC(=O)c1ccc(Br)cc1` belongs 2.68 µM. On to `CC(=O)Cc1cc(O)c2ccccc2c1OC(=O)c1ccccc1`, for which the IC50 is 1.52 µM. To `COc1cc2c(cc1OC)C(C)N(CCc1ccc(Cl)cc1)CC2` (stereo unspecified) belongs “inactive”; to `COc1ccccc1-c1cc(C(=O)NC2CCN(C)CC2)c2ccc(Cl)c(C)c2n1`, “inactive”; to `CN1CCC(=C2c3ccccc3CC(=O)c3sccc32)CC1`, > 39.8 µM (inactive). As for `CC(=O)Nc1ccc(S(=O)(=O)N2c3ccc(F)cc3CCC2C)cc1` (stereo unspecified), the IC50 was 6.48 µM. In the case of `COc1cc(C)c2sc3ccccc3c(=O)c2c1NCCN(C)C` it was > 39.8 µM (inactive); in that of `FC(F)(F)c1cccc(NC(=S)N(CCCN2CCCC2)Cc2cccn2Cc2ccc(Cl)cc2)c1`, “inactive”. In the case of `O=C(C[n+]1cccc(CNC(=O)c2ccc(OC(F)F)cc2)c1)Nc1cccc(C(F)(F)F)c1`, the IC50 result was “inactive”. In the case of `CC(=O)Oc1ccc(C23c4ccccc4C2(OC(C)=O)c2cc(OC(C)=O)ccc23)cc1` (stereo unspecified) it was > 39.8 µM (inactive); in that of `CC1Sc2ccc(S(=O)(=O)N3CCC(C(=O)NCc4ccc(Cl)cc4)CC3)cc2NC1=O` (stereo unspecified), 8.56 µM; in that of `Cc1nc2c(o1)CCc1ccccc1C2N1CCN(C)CC1` (stereo unspecified), 2.75 µM. `Cc1cc(C)c(NC(=O)CN2CCN3CCCC3C2)c(C)c1` (stereo unspecified): the IC50 entry was “inactive”.

Take `CC1CCN(S(=O)(=O)c2ccc(NC(=O)Cc3cccs3)cc2)CC1`: the IC50 is 8.64 µM. In the case of `O=c1[nH]c(C2CCN(S(=O)(=O)c3ccc(S(=O)(=O)NC4CC4)cc3)CC2)nc2c1nnn2Cc1ccc(F)cc1` it was 3.42 µM; in that of `Cc1cc(C)c2nc(NNC(=O)c3ccc(S(=O)(=O)N4CCCC(C)C4)cc3)sc2c1` (stereo unspecified), 4.11 µM; in that of `CC(C)c1ccc(N2C=Nc3ccc(C(C)C)cc3C2)cc1`, 1.56 µM.

Turning to `COCCN(CCOC)c1nc(N)c2c(N)nc3c(c2c1C#N)CC(=O)N3Cc1ccc(Cl)cc1`, the IC50 is > 39.8 µM (inactive). In the case of `CC1CCN(S(=O)(=O)c2ccc(NC(=O)Cc3ccccc3)cc2)CC1` it was 8.77 µM; in that of `Cc1ccc2c(CC(=O)N3CCN(S(=O)(=O)c4ccc5c(c4)OCCO5)CC3)coc2c1`, 5 µM and 5.03 µM; in that of `Cc1ccc2nc3cc([N+](=O)[O-])cc([N+](=O)[O-])c3cc2c1`, 0.619 µM. To `CCN(CC)CCOc1ccc(/C(=C(/Cl)c2ccccc2)c2ccccc2)cc1` belongs 1.11 µM; to `CCOC(=O)c1c(NC(=O)/C=C/C(=O)O)sc(C)c1-c1ccc(C(C)(C)C)cc1`, 5.05 µM. In the case of `O=c1[nH]c(C2CCN(S(=O)(=O)c3ccc(F)cc3)CC2)nc2c1nnn2Cc1ccc2c(c1)OCCO2` it was “inactive”; in that of `COc1ccc(C)c2sc(N(CCN(C)C)C(=O)/C=C/c3cccs3)nc12`, 6.96 µM. Turning to `CCN(CC)CCC(C)OC(c1ccccc1)c1ccccc1` (stereo unspecified), the IC50 was 1.79 µM.
